Patent publication US9453062B2, “Glucose dependent insulinotropic polypeptide analogs, pharmaceutical compositions and use thereof” (Beijing Hanmi Pharmaceutical Co., Ltd., priority 2011, dated 2016)
Like-named read-outs stand apart in the source and are kept apart here. Where a SMILES comes first, the peptide text is derived from it. Bridges are numbered along the chain shown (N, C = ends). Where no end group is shown, it is not given here. [ ]: non-standard residue; d: D form. Phg = N[C@H](C(=O)O)c1ccccc1; Nle = CCCC[C@H](N)C(=O)O; Aib = CC(C)(N)C(=O)O

Columns and labels:
hGLP-1R = target: T1, hGLP-1R (Homo sapiens, UniProt P43220); test: hGLP-1R-mediated cAMP induction assay in CHO cell line; format: cell-based; conditions: for GLP-1 Receptor Relative Potency: against native GLP-1;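 as to all read-outs here: CHO cells expressing human GLP-1R, treated 30 min at 37 °C, intracellular cAMP measured by competitive fluorescent immunoassay and converted via a cAMP standard curve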
T1 construct: expressed in transfected cells; host or cells: CHO
Description: (§1) The cAMP in the sample or standard competes with horseradish peroxidase (HRP)-labeled cAMP conjugate for binding sites on the anti-cAMP antibodies. In the absence of cAMP, most of the HRP-cAMP conjugate is bound to the antibody. Increasing concentrations of cAMP competitively decrease the amount of bound conjugate, thus decreasing measured HRP activity.
(§2) Assay kit: CatchPoint™ Cyclic-AMP Fluorescent Assay Kit (Molecular Devices, Product # R8088)
Cell lines: CHO hGLP1R, CHO hGIPR
(§3) Cell seeding: CHO hGLP1R or CHO hGIPR cells: 10,000 cells/well/100 uL at 37° C. 5% CO2 overnight.
(§4) Gently aspirate off media and wash the cells with KRBG Buffer, 100 uL/well.
(§5) Incubate the plate for 10 min at room temperature. Then add the KRBG buffer with 3× final concentration of the tested samples (5-foled series diluted from 5,000 nM), 50 uL/well. Incubate the plate at 37° C. 5% CO2 for 30 min.
(§6) Add 50 uL of Lysis buffer to each well and put the plate on a shaker for 10 min.
(§7) Place 40 uL of samples and analyze in appropriate wells. And test the cAMP concentration in each sample by following the manufacture's instruction.
(§8) Detect the fluorescence signal at Ex: 490 nm and Em: 530 nm. Transfer the FI signal to cAMP concentration by the cAMP standard curve. The Dose-response curve and EC50 were obtained by logistic fitting of Origin 8.

hGIPR = target: T2, hGIPR (Homo sapiens, UniProt P48546); test: hGIPR-mediated cAMP induction assay in CHO cell line; format: cell-based; conditions: Table 3; for EC50: CHO hGIPR cells; for GIP Receptor Relative Potency: against native GIP
T2 construct: expressed in transfected cells; host or cells: CHO
T2 sequence (P48546 22-466): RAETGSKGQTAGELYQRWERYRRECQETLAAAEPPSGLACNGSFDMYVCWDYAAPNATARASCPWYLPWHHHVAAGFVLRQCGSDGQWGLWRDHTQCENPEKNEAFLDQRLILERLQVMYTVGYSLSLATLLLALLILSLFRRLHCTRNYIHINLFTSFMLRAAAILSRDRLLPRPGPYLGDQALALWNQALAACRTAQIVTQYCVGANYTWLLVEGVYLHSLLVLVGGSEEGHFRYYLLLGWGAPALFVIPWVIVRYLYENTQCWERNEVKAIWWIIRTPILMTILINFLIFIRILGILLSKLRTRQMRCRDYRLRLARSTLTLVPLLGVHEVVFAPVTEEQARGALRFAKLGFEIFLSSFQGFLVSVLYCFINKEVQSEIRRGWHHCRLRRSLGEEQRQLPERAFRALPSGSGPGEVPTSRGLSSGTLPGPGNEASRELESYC
Description: as §1, §2
Cell lines: CHO hGLP1R, CHO hGIPR
as §3, §4, §5, §6, §7, §8

T1 sequence (P43220 24-463): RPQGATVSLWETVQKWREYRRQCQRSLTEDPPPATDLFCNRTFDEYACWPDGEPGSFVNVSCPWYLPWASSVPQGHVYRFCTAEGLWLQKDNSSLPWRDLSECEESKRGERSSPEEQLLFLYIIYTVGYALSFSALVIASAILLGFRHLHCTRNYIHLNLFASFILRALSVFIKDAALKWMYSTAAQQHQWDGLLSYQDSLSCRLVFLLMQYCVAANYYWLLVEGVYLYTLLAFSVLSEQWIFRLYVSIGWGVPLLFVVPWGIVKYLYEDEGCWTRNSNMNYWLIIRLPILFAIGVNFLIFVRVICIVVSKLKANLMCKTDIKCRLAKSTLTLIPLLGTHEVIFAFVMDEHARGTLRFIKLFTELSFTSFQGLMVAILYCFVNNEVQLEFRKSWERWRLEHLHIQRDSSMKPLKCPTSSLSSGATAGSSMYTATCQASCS

EC50 (hGLP-1R; Table 3, CHO hGLP1R cells) | GLP-1 Receptor Relative Potency (hGLP-1R; Table 3) | GIP Receptor Relative Potency (hGIPR) | Compound | other results
– | – | – | CCCC[C@H](NC(=O)[C@@H](NC(=O)[C@@H](NC(=O)[C@H](CO)NC(=O)[C@H](Cc1ccc(O)cc1)NC(=O)[C@H](CC(=O)O)NC(=O)[C@H](CO)NC(=O)[C@@H](NC(=O)[C@H](Cc1ccccc1)NC(=O)[C@@H](NC(=O)CNC(=O)[C@H](CCC(=O)O)NC(=O)C(C)(C)NC(=O)[C@@H](N)Cc1ccc(O)cc1)[C@@H](C)O)[C@@H](C)O)[C@@H](C)CC)c1ccccc1)C(=O)N[C@@H](CCC(=O)O)C(=O)N[C@@H](CCCCN)C(=O)N[C@H](C(=O)N[C@@H](Cc1c[nH]cn1)C(=O)N[C@@H](CCC(N)=O)C(=O)N[C@@H](CCC(N)=O)C(=O)N[C@@H](CC(=O)O)C(=O)N[C@@H](Cc1ccccc1)C(=O)N[C@H](C(=O)N[C@@H](CC(N)=O)C(=O)N[C@@H](Cc1c[nH]c2ccccc12)C(=O)N[C@@H](CC(C)C)C(=O)N[C@@H](CC(C)C)C(=O)N[C@@H](C)C(=O)N[C@@H](CCC(N)=O)C(N)=O)C(C)C)[C@@H](C)CC [Compound 009] (H-Y[Aib]EGTFTSDYSI[Phg][Nle]EKIHQQDFVNWLLAQ-NH2; N-terminus assumed) | EC50 (hGLP-1R): > 2000 nM
– | – | – | CCCC[C@H](NC(=O)[C@H](C)NC(=O)[C@@H](NC(=O)[C@H](CO)NC(=O)[C@H](Cc1ccc(O)cc1)NC(=O)[C@H](CC(=O)O)NC(=O)[C@H](CO)NC(=O)[C@@H](NC(=O)[C@H](Cc1ccccc1)NC(=O)[C@@H](NC(=O)CNC(=O)[C@H](CCC(=O)O)NC(=O)C(C)(C)NC(=O)[C@@H](N)Cc1ccc(O)cc1)[C@@H](C)O)[C@@H](C)CC)[C@@H](C)CC)C(=O)N[C@@H](CCC(=O)O)C(=O)N[C@@H](CCCCN)C(=O)N[C@H](C(=O)N[C@@H](Cc1c[nH]cn1)C(=O)N[C@@H](CCC(N)=O)C(=O)N[C@@H](CCC(N)=O)C(=O)N[C@@H](CC(=O)O)C(=O)N[C@@H](Cc1ccccc1)C(=O)N[C@H](C(=O)N[C@@H](CC(N)=O)C(=O)N[C@@H](Cc1c[nH]c2ccccc12)C(=O)N[C@@H](CC(C)C)C(=O)N[C@@H](CC(C)C)C(=O)N[C@@H](C)C(=O)N[C@@H](CCC(N)=O)C(N)=O)C(C)C)[C@@H](C)CC [Compound 010] (H-Y[Aib]EGTFISDYSIA[Nle]EKIHQQDFVNWLLAQ-NH2; N-terminus assumed) | EC50 (hGLP-1R): > 2000 nM
2.5 nM | – | 36.8 | CC[C@H](C)[C@H](NC(=O)[C@H](Cc1ccccc1)NC(=O)[C@H](CCC(=O)O)NC(=O)[C@H](CCCNC(=N)N)NC(=O)[C@@H](NC(=O)[C@H](C)NC(=O)[C@H](CCC(=O)O)NC(=O)[C@H](CCCCN)NC(=O)[C@H](CCC(=O)O)NC(=O)[C@H](CCSC)NC(=O)[C@H](Cc1ccc(O)cc1)NC(=O)[C@H](CCC(=O)O)NC(=O)[C@H](CO)NC(=O)[C@H](Cc1ccc(O)cc1)NC(=O)[C@H](CC(=O)O)NC(=O)[C@H](CO)NC(=O)[C@@H](NC(=O)[C@H](Cc1ccccc1)NC(=O)[C@@H](NC(=O)CNC(=O)[C@H](CCC(=O)O)NC(=O)C(C)(C)NC(=O)[C@@H](N)Cc1ccc(O)cc1)[C@@H](C)O)[C@@H](C)O)C(C)C)C(=O)N[C@@H](C)C(=O)N[C@@H](Cc1c[nH]c2ccccc12)C(=O)N[C@@H](CC(C)C)C(=O)N[C@H](C(=O)N[C@@H](CCCCN)C(=O)NCC(N)=O)C(C)C [Compound 052-1] (H-Y[Aib]EGTFTSDYSEYMEKEAVREFIAWLVKG-NH2; N-terminus assumed) | EC50 (hGIPR): 0.57 nM
– | 132.8 | 146.8 | CC[C@H](C)[C@H](NC(=O)[C@H](Cc1ccccc1)NC(=O)[C@H](CCC(=O)O)NC(=O)[C@H](CCCNC(=N)N)NC(=O)[C@@H](NC(=O)[C@H](C)NC(=O)[C@H](CCC(=O)O)NC(=O)[C@@H]1CCCCNC(=O)CC[C@H](NC(=O)[C@H](CO)NC(=O)[C@H](Cc2ccc(O)cc2)NC(=O)[C@H](CC(=O)O)NC(=O)[C@H](CO)NC(=O)[C@@H](NC(=O)[C@H](Cc2ccccc2)NC(=O)[C@@H](NC(=O)CNC(=O)[C@H](CCC(=O)O)NC(=O)C(C)(C)NC(=O)[C@@H](N)Cc2ccc(O)cc2)[C@@H](C)O)[C@@H](C)O)C(=O)N[C@@H](Cc2ccc(O)cc2)C(=O)N[C@@H](CCSC)C(=O)N[C@@H](CCC(=O)O)C(=O)N1)C(C)C)C(=O)N[C@@H](C)C(=O)N[C@@H](Cc1c[nH]c2ccccc12)C(=O)N[C@@H](CC(C)C)C(=O)N[C@H](C(=O)N[C@@H](CCCCN)C(=O)NCC(N)=O)C(C)C [Compound 052-2] (H-Y[Aib]EGTFTSDYSEYMEKEAVREFIAWLVKG-NH2; lactam 12-16) | –
2.95 nM | 37 | 35.4 | CC[C@H](C)[C@H](NC(=O)[C@H](Cc1ccccc1)NC(=O)[C@H](CCC(=O)O)NC(=O)[C@@H]1CCC(=O)NCCCC[C@H](NC(=O)[C@H](CCC(=O)O)NC(=O)[C@H](CCSC)NC(=O)[C@H](Cc2ccc(O)cc2)NC(=O)[C@@H](NC(=O)[C@H](CO)NC(=O)[C@H](Cc2ccc(O)cc2)NC(=O)[C@H](CC(=O)O)NC(=O)[C@H](CO)NC(=O)[C@@H](NC(=O)[C@H](Cc2ccccc2)NC(=O)[C@@H](NC(=O)CNC(=O)[C@H](CCC(=O)O)NC(=O)C(C)(C)NC(=O)[C@@H](N)Cc2ccc(O)cc2)[C@@H](C)O)[C@@H](C)O)[C@@H](C)CC)C(=O)N[C@@H](CCC(=O)O)C(=O)N[C@@H](C)C(=O)N[C@@H](C(C)C)C(=O)N1)C(=O)N[C@@H](C)C(=O)N[C@@H](Cc1c[nH]c2ccccc12)C(=O)N[C@@H](CC(C)C)C(=O)N[C@H](C(=O)N[C@@H](CCCCN)C(=O)NCC(N)=O)C(C)C [Compound 053-2] (H-Y[Aib]EGTFTSDYSIYMEKEAVEEFIAWLVKG-NH2; lactam 16-20; N-terminus assumed) | –
– | – | – | Tyr-Aib-Glu-Gly-Thr-Phe-Thr-Ser-Asp-Tyr-Ser-Ile-Tyr-Met-Glu-Lys-Ile-His-Gln-Gln-Asp-Phe-Val-Asn-Trp-Leu-Leu-Ala-Gln(NH2) (Y[Aib]EGTFTSDYSIYMEKIHQQDFVNWLLAQ-NH2) [Analog 003] | GLP-1R activation (GLP-1 activity) against native GLP-1 (hGLP-1R): ~0.2%
– | – | – | Tyr-Aib-Glu-Gly-Thr-Phe-Thr-Ser-Asp-Tyr-Ser-Ile-Tyr-Nle-Glu-Lys-Glu-Ala-Gln-Gln-Asp-Phe-Val-Asn-Trp-Leu-Leu-Ala-Gln(NH2) (Y[Aib]EGTFTSDYSIY[Nle]EKEAQQDFVNWLLAQ-NH2) [Analog 020] | GLP-1R activation (GLP-1 activity) against native GLP-1 (hGLP-1R): less than 1%

Compound | EC50 (hGLP-1R; Table 3, CHO hGLP1R cells) | GLP-1 Receptor Relative Potency (hGLP-1R; Table 3) | GIP Receptor Relative Potency (hGIPR) | other results
CC[C@H](C)[C@H](NC(=O)[C@H](Cc1ccccc1)NC(=O)[C@H](CCC(=O)O)NC(=O)[C@H](CCCNC(=N)N)NC(=O)[C@@H](NC(=O)[C@H](C)NC(=O)[C@H](CCC(=O)O)NC(=O)[C@H](CCCCN)NC(=O)[C@H](CCC(=O)O)NC(=O)[C@H](CCSC)NC(=O)[C@H](Cc1ccc(O)cc1)NC(=O)[C@@H](NC(=O)[C@H](CO)NC(=O)[C@H](Cc1ccc(O)cc1)NC(=O)[C@H](CC(=O)O)NC(=O)[C@H](CO)NC(=O)[C@@H](NC(=O)[C@H](Cc1ccccc1)NC(=O)[C@@H](NC(=O)CNC(=O)[C@H](CCC(=O)O)NC(=O)C(C)(C)NC(=O)[C@@H](N)Cc1ccc(O)cc1)[C@@H](C)O)[C@@H](C)O)[C@@H](C)CC)C(C)C)C(=O)N[C@@H](C)C(=O)N[C@@H](Cc1c[nH]c2ccccc12)C(=O)N[C@@H](CC(C)C)C(=O)N[C@H](C(=O)N[C@@H](CCCCN)C(=O)NCC(=O)NCC(=O)N1CCC[C@H]1C(=O)N[C@@H](CO)C(=O)N[C@@H](CO)C(=O)NCC(=O)N[C@@H](C)C(=O)N1CCC[C@H]1C(=O)N1CCC[C@H]1C(=O)N1CCC[C@H]1C(=O)N[C@@H](CO)C(N)=O)C(C)C [Compound 051] (H-Y[Aib]EGTFTSDYSIYMEKEAVREFIAWLVKGGPSSGAPPPS-NH2; N-terminus assumed) | 0.599 nM | 159.8 | 89.5 | EC50 (hGIPR): 0.19 nM
